The target of experiment [1] is T1, human recombinant kinase full-length AKT1 E17K (Homo sapiens, UniProt P31749, E17K).
T1 construct: Purified human recombinant kinase full-length AKT1 E17K was expressed in insect cells; made in house; host or cells: insect cells
As to the kind of experiment: AKT1 E17K kinase assay (TR-FRET, Lance). As to conditions: 0.6 nM AKT1 E17K, 50 nM Ulight-CREBtide, either 50 μM ATP or 2 mM ATP (not specified which), 60 min at RT. The class given is biochemical. The procedure: AKT1 E17K kinase assay: Inhibitory effects of compounds on AKT1 E17K were undertaken in a 10-pt dose response kinase activity assay measuring phospho-peptide product formation based on TR-FRET signal as described in the following paragraph.
(§1) Purified human recombinant kinase full-length AKT1 E17K was expressed in insect cells and activated in vitro by PDPK1. Ulight™-CREBtide (PerkinElmer, catalog number TRF0107) was used as the peptide substrate. The reaction buffer consisted of 50 mM HEPES pH 7.5, 10 mM MgCl2, 0.01% Triton X-100, 0.01% BSA, 2 mM DTT, 0.6 nM AKT1 E17K, 50 nM. Ulight™ CREBtide and either 50 μM ATP or 2 mM ATP. The compound solution was prepared as 10 mM DMSO stock. […] Final DMSO concentration in the assay was 1%. […] The reaction was stopped after 60 min of incubation at RT by the addition of 10 μL of Detection Mix (PerkinElmer, #CR97-100) consisting of Europium-anti-phospho-CREB (Ser133) (Perkin Elmer, catalog numberTRF0200). Incubation with the detection mix for a further 60 min allowed binding of antibody to the phospho-Ulight™ CREBtide. The fluorescence emissions at 620 nm and 665 nm after excitation at […] was measured using Envision reader. The ratio of the emissions at 665 nm and at 620 nm provided the measure for the amount of phosphorylated CREBtide product of AKT1 E17K kinase activity.
On the technique in general: Time-resolved FRET reads energy transfer from a long-lived donor to a nearby acceptor.

Experiment [2] addresses T2, human recombinant kinase full-length wildtype AKT1 (Homo sapiens, UniProt P31749).
T2 construct: Purified human recombinant kinase full-length wildtype AKT1 was expressed in insect cells; made in house; host or cells: insect cells
Kind of experiment: AKT1 kinase assay (wildtype, TR-FRET, Lance). The class given is biochemical. The note with it: 0.6 nM wildtype AKT1, 50 nM Ulight-CREBtide, either 50 μM ATP or 2 mM ATP (not specified which), 60 min at RT. The procedure:
AKT1 kinase assay: Inhibitory effects of compounds on wildtype AKT1 were undertaken in a 10-pt dose response kinase activity assay measuring phospho-peptide product formation based on TR-FRET signal as described in the following paragraph.
as §1, with “full-length wildtype” for “full-length”, “AKT1” for “AKT1 E17K”, “Ulight™—CREBtide” for “Ulight™-CREBtide”, “AKT1,” for “AKT1 E17K,”, “nM Ulight™-CREBtide” for “nM. Ulight™ CREBtide”

From patent publication US20260200919A1, “SUBSTITUTED AMINOPYRIDINE COMPOUNDS AND METHODS OF TREATING DISEASE USING SAME” (Atavistik Bio, Inc., priority 2023, published 2026) come the findings set out here.

pIC50: −log10 of the molar value. Some results are limits rather than exact numbers.

T1 sequence (P31749 whole entry E17K): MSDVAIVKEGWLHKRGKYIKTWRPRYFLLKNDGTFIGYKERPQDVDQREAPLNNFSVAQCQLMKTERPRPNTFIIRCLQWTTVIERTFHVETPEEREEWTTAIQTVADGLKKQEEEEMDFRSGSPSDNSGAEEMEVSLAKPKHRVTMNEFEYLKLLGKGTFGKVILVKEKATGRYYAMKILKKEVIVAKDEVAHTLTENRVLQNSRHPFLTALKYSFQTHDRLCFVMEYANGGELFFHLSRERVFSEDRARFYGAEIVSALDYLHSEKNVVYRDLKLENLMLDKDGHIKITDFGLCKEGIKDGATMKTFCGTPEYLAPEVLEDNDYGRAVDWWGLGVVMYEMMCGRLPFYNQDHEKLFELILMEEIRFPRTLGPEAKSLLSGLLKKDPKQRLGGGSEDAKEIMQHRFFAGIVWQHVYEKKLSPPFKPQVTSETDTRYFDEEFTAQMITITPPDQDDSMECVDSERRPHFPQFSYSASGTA
T2 sequence (P31749 whole entry): as the sequence (P31749 whole entry E17K) above, with K17E counted along it

As to `CC(c1ccc(C(=O)O)cc1)N1CC(c2ccc(-n3c(-c4cccnc4N)nc4ccc(-c5ccccc5)nc43)cc2F)C1` (centres unmarked) [Compound 166, 4-(1-(3-(4-(2-(2-aminopyridin-3-yl)-5-phenyl-3H-imidazo[4,5-b]pyridin-3-yl)-2-fluorophenyl)azetidin-1-yl)ethyl)benzoic acid], the pIC50 is 6.30 to 6.70 in experiment [1] and > 6.30 in experiment [2].

On to `Nc1ncccc1-c1nc2ccc(-c3ccccc3)nc2n1-c1ccc(NC(=O)c2cccc(CC(=O)O)c2)nc1` [Compound 64, 2-(3-((5-(2-(2-aminopyridin-3-yl)-5-phenyl-3H-imidazo[4,5-b]pyridin-3-yl)pyridin-2-yl)carbamoyl)phenyl) acetic acid], for which the results for the pIC50 in experiment [1] and in experiment [2] were > 7.30 and > 6.30, respectively.

Take `Nc1ncccc1-c1nc2ccc(-c3ccccc3)nc2n1-c1ccc(C2CCN(Cc3ccc(C(=O)O)cc3)CC2)cc1` [Compound 139, 4-((4-(4-(2-(2-aminopyridin-3-yl)-5-phenyl-3H-imidazo[4,5-b]pyridin-3-yl)phenyl)piperidin-1-yl)methyl)benzoic acid]: the pIC50 was < 6.30 in experiment [1] and > 6.30 in experiment [2].

On to `CC(C(=O)O)c1cccc(C(=O)NCc2ccc(-n3c(-c4cccnc4N)nc4ccc(-c5ccccc5)nc43)cc2)n1` (centres unmarked) [Compound 38, 2-(6-((4-(2-(2-aminopyridin-3-yl)-5-phenyl-3H-imidazo[4,5-b]pyridin-3-yl)benzyl)carbamoyl)pyridin-2-yl) propanoic acid], for which the pIC50 in experiment [1] and in experiment [2] was < 6.30 each time.

For `Nc1ncccc1-c1nc2ccc(-c3ccccc3)nc2n1-c1ccc(NC(=O)c2cccc(C(=O)O)c2)nc1` [Compound 60, 3-((5-(2-(2-aminopyridin-3-yl)-5-phenyl-3H-imidazo[4,5-b]pyridin-3-yl)pyridin-2-yl)carbamoyl)benzoic acid], the pIC50 in experiment [1] was > 7.30; in experiment [2], > 6.30.

For `Cc1cc(C(=O)O)ccc1C(=O)NCc1ccc(-n2c(-c3cccnc3N)nc3ccc(C(F)(F)F)cc32)cc1` [Compound 105, 4-((4-(2-(2-aminopyridin-3-yl)-6-(trifluoromethyl)-1H-benzo[d]imidazol-1-yl)benzyl)carbamoyl)-3-methylbenzoic acid], the figures for the pIC50 in experiment [1] and in experiment [2] were < 6.30 and > 6.30, respectively.

For the compound `Cc1c(C(=O)O)cccc1C(=O)N1CC(c2ccc(-n3c(-c4cccnc4N)nc4ccc(-c5ccccc5)nc43)cc2)C1` [Compound 77, 3-(3-(4-(2-(2-aminopyridin-3-yl)-5-phenyl-3H-imidazo[4,5-b]pyridin-3-yl)phenyl)azetidine-1-carbonyl)-2-methylbenzoic acid], the pIC50 is 6.70 to 7.30 in experiment [1] and > 6.30 in experiment [2].

On to `Nc1ncccc1-c1nc2ccc(-c3ccccc3)nc2n1-c1ccc(C2CN(Cc3ccc(C(=O)O)cc3)C2)nc1` [Compound 168, 4-[[3-[5-[2-(2-amino-3-pyridyl)-5-phenyl-imidazo[4,5-b]pyridin-3-yl]-2-pyridyl]azetidin-1-yl]methyl]benzoic acid], for which the pIC50 was < 6.30 in experiment [1] and > 6.30 in experiment [2].

On to `Nc1ncccc1-c1nc2ccc(-c3ccccc3)cc2n1-c1ccc(CNC(=O)c2cccc(CC(=O)O)c2)cc1` [Compound 51, 2-(3-((4-(2-(2-aminopyridin-3-yl)-6-phenyl-1H-benzo[d]imidazol-1-yl)benzyl)carbamoyl)phenyl)acetic acid], for which the pIC50 in experiment [1] is 6.70 to 7.30; in experiment [2] it was > 6.30.

Take `Nc1ncccc1-c1nc2ccc(C(F)(F)F)cc2n1-c1ccc(CNC(=O)c2cccc(CC(=O)O)c2)cc1` [Compound 107, 2-(3-((4-(2-(2-aminopyridin-3-yl)-6-(trifluoromethyl)-1H-benzo[d]imidazol-1-yl)benzyl)carbamoyl)phenyl) acetic acid]: the negative-log IC50 (pIC50) in experiment [1] and in experiment [2] was < 6.30 throughout.

Take `C[C@H](c1ccc(C(=O)O)cc1C(F)(F)F)N1CC(c2ccc(-n3c(-c4cccnc4N)nc4ccc(-c5ccccc5)nc43)cc2)C1` [Compound 165]: the pIC50 is 6.70 to 7.30 in experiment [1] and > 6.30 in experiment [2].

In the case of `CC(C)[C@H](c1ccc(C(=O)O)cc1)N1CC(c2ccc(-n3c(-c4cccnc4N)nc4ccc(-c5ccccc5)nc43)cc2)C1` [Compound 161], the pIC50 in experiment [1] was 6.30 to 6.70; in experiment [2] it was > 6.30.

As to `Nc1ncccc1-c1nc2ccc(-c3ccccc3)nc2n1-c1ccc(C2CN(Cc3cccc(CC(=O)O)c3)C2)cc1` [Compound 79, 2-(3-((3-(4-(2-(2-aminopyridin-3-yl)-5-phenyl-3H-imidazo[4,5-b]pyridin-3-yl)phenyl)azetidin-1-yl)methyl)phenyl) acetic acid], the pIC50 in experiment [1] was 6.30 to 6.70; in experiment [2] it was > 6.30.

For `COC(=O)Cc1cccc(C(=O)NCc2ccc(-n3c(-c4cccnc4N)nc4cccnc43)cc2)c1` [Compound 100, methyl 2-(3-((4-(2-(2-aminopyridin-3-yl)-3H-imidazo[4,5-b]pyridin-3-yl)benzyl)carbamoyl)phenyl)acetate], the pIC50 in experiment [1] and in experiment [2] was < 6.30 each time.

Regarding `COC(=O)Cc1ccc(C(=O)NCc2ccc(-n3c(-c4cccnc4N)nc4cc(-c5cccnc5)cnc43)cc2)cc1` [Compound 87, methyl 2-(4-((4-(2-(2-aminopyridin-3-yl)-6-(pyridin-3-yl)-3H-imidazo[4,5-b]pyridin-3-yl)benzyl)carbamoyl)phenyl)acetate], the pIC50 in experiment [1] was < 6.30; in experiment [2], > 6.30.

Regarding `C[C@H](c1ccc(C(=O)O)cc1)N1CC(c2ccc(-n3c(-c4cccnc4N)nc4ccc(-c5ccccc5)nc43)cc2)C1` (single isomer, unassigned) [Compound 125], the negative-log IC50 (pIC50) in experiment [1] is 6.70 to 7.30; in experiment [2], > 6.30.

As to `Nc1ncccc1-c1nc2ccc(-c3ccccc3)nc2n1-c1ccc(C2CN(Cc3ccc(C(=O)O)cc3)C2)cc1` [Compound 183, 4-((3-(4-(2-(2-aminopyridin-3-yl)-5-phenyl-3H-imidazo[4,5-b]pyridin-3-yl)phenyl)azetidin-1-yl)methyl)benzoic acid], the figures for the pIC50 in experiment [1] and in experiment [2] were 6.70 to 7.30 and > 6.30, respectively.

In the case of `COC(=O)c1ccccc1C(=O)N1CC(c2ccc(-n3c(-c4cccnc4N)nc4ccc(-c5ccccc5)nc43)cc2)C1` [Compound 73, methyl 2-(3-(4-(2-(2-aminopyridin-3-yl)-5-phenyl-3H-imidazo[4,5-b]pyridin-3-yl)phenyl)azetidine-1-carbonyl)benzoate], the negative logarithm of the IC50 (pIC50) in experiment [1] was < 6.30; in experiment [2], > 6.30.

With `CC(=O)Nc1ccc(-c2cnc3c(c2)nc(-c2cccnc2N)n3-c2ccc(CNC(=O)c3cccc(CC(=O)O)c3)cc2)cc1` [Compound 84, 2-(3-((4-(6-(4-acetamidophenyl)-2-(2-aminopyridin-3-yl)-3H-imidazo[4,5-b]pyridin-3-yl)benzyl)carbamoyl)phenyl) acetic acid], the pIC50 was 6.70 to 7.30 in experiment [1] and > 6.30 in experiment [2].

In the case of `Cc1nc(NC(=O)c2ccc(C(=O)O)cc2)ccc1-n1c(-c2cccnc2N)nc2ccc(-c3ccccc3)cc21` [Compound 182, 4-((5-(2-(2-aminopyridin-3-yl)-6-phenyl-1H-benzo[d]imidazol-1-yl)-6-methylpyridin-2-yl)carbamoyl)benzoic acid], the pIC50 in experiment [1] was < 6.30; in experiment [2] it was > 6.30.

`Nc1ncccc1-c1nc2ccc(-c3ccccc3)nc2n1-c1ccc(CNC(=O)c2cccc(CC(=O)O)c2)c(F)c1` [Compound 50, 2-(3-((4-(2-(2-aminopyridin-3-yl)-5-phenyl-3H-imidazo[4,5-b]pyridin-3-yl)-2-fluorobenzyl)carbamoyl)phenyl)acetic acid]: the negative logarithm of the IC50 (pIC50) in experiment [1] and in experiment [2] was < 6.30 in each case.

Consider `CC(c1ccc(C(=O)O)c(F)c1)N1CC(c2ccc(-n3c(-c4cccnc4N)nc4ccc(-c5ccccc5)nc43)cc2)C1` (centres unmarked) [Compound 163], for which the pIC50 was 6.70 to 7.30 in experiment [1] and > 6.30 in experiment [2].

As a reminder, the pIC50 is −log10 of the IC50, conventionally taken in molar units.
